Values joined by “and” are separate entries in the source; they are usually repeats but may differ in a detail not shown here. Equal entries are not always repeated. Where two headings read alike, the source gives them in different places.
Key:
SARS-CoV-2 NSP3 Mac1 [1] = biological target: T1, SARS-CoV-2 NSP3 Mac1 (Severe acute respiratory syndrome coronavirus 2, UniProt P0DTD1); assay type: binding; details: for Refined occupancy: ligand occupancy after refinement (phenix.refine)
SARS-CoV-2 NSP3 Mac1 [2] = biological target: T1, SARS-CoV-2 NSP3 Mac1; assay type: binding; parameters: contains a conserved macrodomain enzyme (Mac1); details: for Spearman est (compound concentration vs apparent Tm): DSF dose responsiveness, 1 µM nsp3 mac1, adj p given
How it was run: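 Differential scanning fluorimetry using 5 µM Fluorescent Yellow dye in place of SYPRO Orange. Compounds run in triplicate at seven two-fold dilutions from 1,000 or 100 μM, with ΔTma taken against a DMSO control in the same plate region. Dose-response significance assessed by Spearman's coefficient between concentration and ΔTma.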

[3] = overall hit flag: binding in crystallographic soaking or the HTRF-based binding assay
[4] = maximal thermal upshift vs DMSO control
[5] = PanDDA 1-BDC value of the event, crystal soak, compound concentration 100 mM, per dataset
[6] = PanDDA event map, 1 minus background density correction, crystal soaking of Mac1
[7] = crystal soak, compound concentration 100 mM, per dataset
[8] = PanDDA 1-BDC (background density correction) of the event, crystal soak 100 mM, PanDDA run dmso_34
[9] = crystal soak, compound concentration 100 mM, PanDDA run dmso_34, series docking_lead-like_1
[10] = ligand modeled in the crystal structure, crystal soak 100 mM, PanDDA run dmso_34
[11] = ligand modeled in the crystal structure, crystal soak, compound concentration 100 mM, per dataset
[12] = true hit = binding in crystallographic soaking or the HTRF-based binding assay
[13] = ligand modeled from this dataset, compound concentration 100 mM

Structure (SMILES)	HIT* (SARS-CoV-2 NSP3 Mac1 [1]; [3])	DSF max dTma (SARS-CoV-2 NSP3 Mac1 [2]; [4])	1-BDC (SARS-CoV-2 NSP3 Mac1 [1]; [5])	1-BDC (SARS-CoV-2 NSP3 Mac1 [1]; PanDDA event map, 1-BDC of the hit dataset, crystal soak, compound concentration 100 mM, listed as Z8580)	1-BDC (SARS-CoV-2 NSP3 Mac1 [1]; [6])	PanDDA hit? (SARS-CoV-2 NSP3 Mac1 [1]; [7])	Modeled? (SARS-CoV-2 NSP3 Mac1 [1]; ligand modeled from this dataset, crystal soak, compound concentration 100 mM)	Refined occupancy (SARS-CoV-2 NSP3 Mac1 [1]; crystal soaking of Mac1)	Spearman est (compound concentration vs apparent Tm) (SARS-CoV-2 NSP3 Mac1 [2])	1-BDC (SARS-CoV-2 NSP3 Mac1 [1]; [8])	PanDDA hit? (SARS-CoV-2 NSP3 Mac1 [1]; [9])	Modeled? (SARS-CoV-2 NSP3 Mac1 [1]; [10])	1-BDC (SARS-CoV-2 NSP3 Mac1 [1]; PanDDA event map background density correction, crystal soak, Compound_concentration 100 mM, PanDDA run dmso_34)	PanDDA hit? (SARS-CoV-2 NSP3 Mac1 [1]; crystal soak, Compound_concentration 100 mM, Echo dispense 40 nl, PanDDA run dmso_34)	Modeled? (SARS-CoV-2 NSP3 Mac1 [1]; ligand modeled in crystal structure, crystal soak, Compound_concentration 100 mM, PanDDA run dmso_34)	Modeled? (SARS-CoV-2 NSP3 Mac1 [1]; [11])	HIT* (SARS-CoV-2 NSP3 Mac1 [1]; [12])	DSF max dTma (SARS-CoV-2 NSP3 Mac1 [2]; maximal thermal upshift)	1-BDC (PanDDA) (SARS-CoV-2 NSP3 Mac1 [1]; [6])	Modeled? (SARS-CoV-2 NSP3 Mac1 [1]; [13])
O=C1CCCN1CCSc1ncnc2[nH]cnc12 [Z9920]	Y	0.95 °C																		
Cc1ccc(-c2nc(Cn3cnc4c(N)nc(N)nc43)cs2)o1 [Z4718398580]	Y	0.71 °C	0.28	0.35 and 0.45	0.45	TRUE	TRUE	60	0.74											
N#Cc1ccc(OCCn2cnc3c(N)ncnc32)cc1 [ZINC000043461211]	Y	0.45 °C			0.31			62	0.26	0.31	TRUE	TRUE								
Nc1ncnc2c1ncn2Cc1cccc(C(F)(F)F)c1 [ZINC000110510893]	Y	0.5 °C			0.35			70	0.5	0.35	TRUE	TRUE								
Nc1ncnc(N2CCC(Oc3ccncc3)C2)c1Cl (stereo not shown) [ZINC000302059710]	Y	0 °C			0.13			26	−0.85				0.13	TRUE	TRUE					
Nc1ncnc2c1ncn2Cc1ccc(Cl)cn1 [ZINC000559260078]	Y	0.98 °C			0.15			30	0.88	0.15	TRUE	TRUE								
Cc1ccc([C@@H]2C[C@@H](C)CCN2C(=O)c2ncnc3[nH]ccc23)o1 [ZINC000611664196]			0.05		0.05	TRUE		10	−0.75							TRUE	Y	0.14 ˚C		
Nc1ncnc2c1ncn2Cc1cc(-c2ccco2)on1 [ZINC000681764827]	Y	0.63 °C			0.16			50	0.38	0.16	TRUE	TRUE								
O=C(c1ncnc2[nH]ccc12)N1CC=CC12CCCCC2 [ZINC000827900828]	Y	0.93 °C			0.18			36	−0.37	0.18	TRUE	TRUE								
C[C@H]1CN(C(=O)c2cccc3[nH]c(=O)oc23)C[C@@H]1C(=O)O [ZINC000833624464]								16	−0.44								Y	0.3 ˚C	0.08	TRUE
Cc1nnc(CNc2cnc(N)c(Cl)n2)n1C1CC1 [ZINC000893101964]			0.04		0.04	TRUE		8	−0.12							TRUE	Y	0.12 ˚C		
CC(CSc1nnc2[nH]cnn12)c1ccccc1 (stereo not shown) [ZINC000920153280]	Y	0 °C			0.2			40	−0.66	0.2	TRUE	TRUE								
Cc1noc(-c2ccnc(-c3ccnc4[nH]ccc34)c2)n1 [ZINC001240411747]								14	−0.16								Y	0.04 ˚C	0.07	TRUE
Cc1cc(S(=O)(=O)N2CCC[C@H](C(N)=O)C2)cnc1N [ZINC001364774273]					0.1			20	0.3								Y	0.21 ˚C		

Source: publication PMC9926234, “Iterative computational design and crystallographic screening identifies potent inhibitors targeting the Nsp3 macrodomain of SARS-CoV-2” (Proceedings of the National Academy of Sciences of the …, 2023)
